Here are results for one compound from patent US9630964B2, “Fluoro-9-methyl-β-carbolines” (priority 2013, dated 2017).

Data set [1] concerns BDNF (brain-derived neurotrophic factor). As to the kind of experiment: Quantitative RT-PCR, relative gene expression of BDNF in SH-SY5Y cells. The class given is cell-based, human. The note with it: 30 μM each, SH-SY5Y. The method, then: (§1) SH-SY5Y cell lines, which were provided by the institute of human genetics of university hospital Eppendorf and which they in turn received from Braunschweig resource center, were used again for the RT-PCR experiments (reverse transcriptase polymerase chain reaction) carried out for this purpose.
The cells were incubated in MEM (Minimum essential medium, Life Technologies) with 10% FCS (fetal calf serum, Biochrom AG) and penicillin/streptomycin (Biochrom AG). The cells were seeded with a density of 1×10^5 cells/cm^2 in 25 cm^2 cell culture bottles (Falcon, cell culture treated) with 5 mL medium. Stock solutions of 10 mmol/L of compounds 9-methyl-β-carboline (AC-002 or 9MβC) and 6-fluoro-9-methyl-β-carboline (AC-102 or 6F9MβC), respectively were prepared in distillated water and sterile filtered. One day after the cell seeding the compounds were added in corresponding amounts (5-55 μL) to reach final concentration in the medium of 10 μM, 20 μM and 30 μM for 6F9MβC and 30 μM, 50 μM and 70 μM for 9MβC. The references received only the corresponding amount of solvent (distilled water). The medium was changed once a week.
The cells were regularly microscopically examined and harvest after 2, 7 and 14 days of incubation time, washed with PBS and immediately frozen at −80° C.
(§2) The RNA-isolation was done with the HighPure RNA Isolation kit of the company Roche. […] The concentration of RNA was measured with nanoDrop spectrometer and the RNA integrity was determined with the aid of the Bioanalyzer 2100 (Agilent). […]
(§3) After the reaction, this run was diluted 1:4 and thereof 2 μL per each quantitative RT-PCR were used. This was performed in a LightCycler 480 under standard conditions in the SybrGreen format with annealing temperatures determined for each primer individually. […]
The specificity was verified by melting curve analysis and subsequent gel electrophoresis. For each PCR the PCR efficiency and the Cq value was determined by the program LinRegPCR and these were used in further calculations. […] Every measured value from FIGS. 5A-5I represents a mean value of 3 independent biologic samples. […]

A further data set concerns NT3 (Neurotrophin 3). As to the kind of experiment: Quantitative RT-PCR, relative gene expression of NT3 in SH-SY5Y cells. The format is cell-based, human. As to conditions: 30 μM each, 14-day exposition. The method, then: as §1
(§4) The cells were incubated in MEM (Minimum essential medium, Life Technologies) with 10% FCS (fetal calf serum, Biochrom AG) and penicillin/streptomycin (Biochrom AG). The cells were seeded with a density of 1×10^5 cells/cm^2 in 25 cm^2 cell culture bottles (Falcon, cell culture treated) with 5 mL medium. […]
as §2, §3
(§5) The specificity was verified by melting curve analysis and subsequent gel electrophoresis. For each PCR the PCR efficiency and the Cq value was determined by the program LinRegPCR and these were used in further calculations. […]

For data set [2], the system named is Cbln (Cerebellin 1 precursor protein). In words: Quantitative RT-PCR, relative gene expression of Cbln in SH-SY5Y cells. The format is cell-based, human. As to conditions: 30 μM each, except after 2-day exposition. On the procedure: as §1, §4, §2, §3, §5
The next data set has as its system quotient Bax/Bcl2. In words: Quantitative RT-PCR, quotient Bax/Bcl2 (apoptosis marker) in SH-SY5Y cells. The note with it: 30 μM each, except after 2-day exposition. The class given is cell-based, human. The method, then: as §1, §4, §2, §3, §5
The next data set concerns hearing threshold. In words: Acoustically evoked potentials: hearing threshold after acoustic trauma. The class given is in vivo. As to conditions: guinea pig, total 0.18 mg per ear. On the procedure:
To trigger an acoustic trauma, guinea pigs were anesthetized with 60 mg/kg ketamine and 8 mg/kg xylazine. Then Bepanten ointment (Bayer) was administered to the eyes and the animal was put in a soundproof chamber. A calibrated speaker was placed directly above the head of the animal, wherein it was set to emit a half octave band, centered around 8 kHz, with a volume of 110 dB for duration of 30 minutes.
As measure for evaluation of the hearing threshold of the guinea pig acoustically evoked potentials were measured. Therefore, the electrophysiological activity of the nerve cells in the brain stem that forward impulses from the inner ear was derived after sonication of the ear with 8, 11.3, 16, 22.6 and 32 kHz. The sonification was carried out ascendingly from 0 dB to 90 dB in single steps of 5 dB.
The measurement was carried out 3 days before the acoustic trauma (D-3), 30 minutes after the acoustic trauma (D0) as well as 14 days after the acoustic trauma (D14).
Per animal one ear was not treated and used as intra-individual control (hierin partly abbreviated to “contr.”) and the second ear was treated with 6-fluoro-9-methyl-β-carboline. Therefore, one hour after the acoustic trauma a dose of 0.12 mg 6-fluoro-9-methyl-β-carboline (in a hydrogel as vehicle) was administered intratympanically. 3 days after the acoustic trauma a further intratympanic administration of 0.06 mg 6-fluoro-9-methyl-β-carboline was carried out. The measurements were conducted on four guinea pigs (n=4).
Afterwards, the remaining shift of hearing threshold (also named as permanent shift of hearing threshold) was determined from the measured values before the acoustic trauma (D-3) and after 14 days (D14). From the measured values directly after the acoustic trauma (D0) and after 14 days (D14) the recovery from the trauma (D0-D14) was also determined.
Analogous to the above performed experiments with 6-fluoro-9-methyl-β-carboline, also corresponding experiments with 9-methyl-β-carboline were performed. The experimental procedure was nearly identical, wherein of course 9-methyl-β-carboline instead of 6-fluoro-9-methyl-β-carboline was used. The total dose of 9-methyl-β-carboline was here 0.2 mg and 0.35 mg per ear, respectively.

Data set [3] is described as follows: Degradation in liver homogenate to toxic dimethylated degradation products (HPLC). As to conditions: rat liver homogenate, conclusion.
Procedure: Also a reference measurement with pure 6-fluoro-9-methyl-β-carboline (6F9MβC) was performed.
To simulate the degradation process in the liver, different concentrations (1 μM, 10 μM and 100 μM) of 6-fluoro-9-methyl-β-carboline (6F9MβC) were incubated with homogenized rat liver for an hour under physiological conditions (37° C. in physiological phosphate-buffered sodium chloride solution, PBS). Subsequently, a HPLC measurement of the filtrated extract was carried out.
The characterization of each substance was achieved by high-performance liquid chromatography (HPLC, partly also named as high-pressure liquid chromatography). For HPLC the eluent consisted to 45% of 90% acetonitrile and to 55% of ammonium acetate (40 mM, pH<5). The flow rate was 0.4 mL/min and injection volume was 10 μL. Each sample was diluted with 60% methanol, if the signal was too strong.

Consider `Cn1c2ccc(F)cc2c2ccncc21` [6F9MβC, 6-fluoro-9-methyl-β-carboline], for which, in data set [1], the “BDNF expression relative to expression induced by 9MβC” value is recorded as “approximately twice as high”. The “NT3 expression relative to expression induced by 9MβC” value in the data set on NT3 (Neurotrophin 3) is recorded as “approximately 3.5 times”. The “Cbln expression relative to expression induced by 9MβC” value in data set [2] is “approximately 1.5 times”. Further, in the data set with quotient Bax/Bcl2, the “quotient Bax/Bcl2 compared to 9MβC” value was “significantly lower”. For the same compound, the “improved recovery of hearing threshold (D0-D14) vs untreated ear” value in the data set with hearing threshold (8 kHz) was “approximately 5 dB”; with hearing threshold (11.3 kHz) it was roughly 25 dB; in the data set on hearing threshold (16 kHz), roughly 20 dB. Further, the “reduction of the hearing threshold (permanent shift D14-D-3) vs untreated control” value is on record as “approximately 20 dB” in the data set with hearing threshold (11.3 kHz) and roughly 30 dB with hearing threshold (16 kHz). Besides, the “metabolization to known toxic (di-methylated) degradation products” value in data set [3] is recorded as “does not lead to toxic di-methylated products”; in data set [3] (listed as 6-fluoro-9-methyl-β-carboline) it was “does not metabolize to known toxic degradation products”.
